This assay has as its target T1, human GluR1 flip (Homo sapiens, UniProt P42261).
T1 construct: expressed in transfected cells; host or cells: CHO-K1
As to the kind of experiment: AMPA receptor function-enhancing activity using calcium influx as index (CHO-K1/GluR1 flip/stargazin-expressing cells). Type of assay: cell-based. Conditions: 100% = 3 mM glutamic acid + 300 μM cyclothiazide, 0% = 3 mM glutamic acid alone; for activation at 30 µM: CHO-K1, test compound 30 μM with 3 mM glutamic acid, read-out: hGluR1 flip/30 μM (%); for hGluR1 flip/30 μM (%): test compound 30 μM with 3 mM glutamic acid. From the text: Experimental Example 1 Measurement method of AMPA receptor function-enhancing activity of compound using calcium influx as index
(1) Construction of Expression Gene
Human GluR1 flip cDNA was amplified by PCR method using forward primer […] (SEQ ID NO: 1) and reverse primer […] (SEQ ID NO: 2) artificially synthesized using human brain-derived cDNA (BD Bioscience) as a template. The amplified product was digested with restriction enzymes EcoRI, NotI (TAKARA SHUZO CO. LTD.) and incorporated into the same site of pcDNA3.1(+) (Invitrogen) to construct pcDNA3.1(+)/human GluR1 flip gene. Human stargazin cDNA was amplified by PCR method using forward primer […] (SEQ ID NO: 3) and reverse primer […] (SEQ ID NO: 4) artificially synthesized using human hippocampus cDNA as a template. The amplified product was digested with restriction enzymes XhoI, BamHI (TAKARA SHUZO CO. LTD.) and incorporated into the same site of pcDNA3.1(−) (Invitrogen) to construct pcDNA3.1 Zeo(−)/human stargazing gene.
(2) Construction of GluR1 Flip/Stargazin Expressing Cell
CHO-K1 cells passaged in a culture medium (Ham's F12 medium (Invitrogen) added with 10% inactivated fetal bovine serum (Morgate) and penicillin, streptomycin (Invitrogen)) were detached using 0.05% trypsin and 0.53 mM EDTA (Invitrogen) diluted with D-PBS(−). The detached cells were suspended in a culture medium, and recovered by centrifugation at 1,000 rpm. The recovered cells were re-suspended in D-PBS(−) and added into 0.4 cm electroporation cuvette (BioRad). pcDNA3.1(+)/human GluR1 flip gene (5 μg) and pcDNA3.1 Zeo(−)/human stargazin gene (15 μg) were added, and introduced into CHO-K1 cells under the conditions of 950 μFd, […] and using Gene Pulser II (BioRad). The introduced cells were cultured overnight in a culture medium. The next day, using a selection medium (culture medium added with zeocin (Invitrogen) at 250 μg/mL), the cells were plated in a 96 well plate at 250 cells/well. The clones showing drug resistance were selected, and GluR1 flip/stargazin expression clones were selected by an assay method shown below using calcium influx as an index.
(3) Measurement Method of AMPA Receptor Function-Enhancing Activity of Compound, Using Calcium Influx as an Index
CHO-K1/GluR1 flip/stargazin-expressing cells were plated on a 384 well black bottom transparent plate, and cultured for 2 days in a CO2 incubator (SANYO ELECTRIC Co. Ltd.) at 37° C. The medium of the cell plate was removed. A calcium indicator (Calcium5 Assay Kit, Molecular Devices) was diluted with an assay buffer (HBSS (Thermo Fisher Scientific), 0.1% BSA (Merck Millipoer) and 10 mM HEPES (Thermo Fisher Scientific)), and 1.25 mM probenecid (Dojindo Laboratories) was added thereto. The mixture prepared above was added at 30 μL/well (100 μL/well in case of 96 wells) to the well, and the well was left standing in 37° C., CO2 incubator for 1 hr. The cell plate was set in CellLux (PerkinElmer), a mixture (15 μL) (50 μL/well in case of 96 wells) of […] glutamic acid (final concentration 3 mM) diluted with an assay buffer and a test compound (test compound concentration 30 μM) was added thereto, and variation in the amount of fluorescence was measured for 3 min. The variation of fluorescence level of a well added with final concentration 3 mM of glutamic acid and 300 μM cyclothiazide (TOCRIS) was defined as 100%, the variation of fluorescence level of a well added with final concentration 3 mM of glutamic acid alone was defined as 0%, and the activity of the compound was calculated by the following formula. activity (%)=(X−C)/(T−C)×100 • T: variation of fluorescence level of well added with final concentration 3 mM of glutamic acid and 300 μM cyclothiazide • C: variation of fluorescence level of well added with final concentration 3 mM of glutamic acid alone • X: variation of fluorescence level of well added with test compound

The record followed here is patent publication US11939327B2, “Heterocyclic compounds” (Takeda Pharmaceutical Company Limited, priority 2017, dated 2024).

T1 sequence (P42261 19-906 isoform P42261-2 limits assumed): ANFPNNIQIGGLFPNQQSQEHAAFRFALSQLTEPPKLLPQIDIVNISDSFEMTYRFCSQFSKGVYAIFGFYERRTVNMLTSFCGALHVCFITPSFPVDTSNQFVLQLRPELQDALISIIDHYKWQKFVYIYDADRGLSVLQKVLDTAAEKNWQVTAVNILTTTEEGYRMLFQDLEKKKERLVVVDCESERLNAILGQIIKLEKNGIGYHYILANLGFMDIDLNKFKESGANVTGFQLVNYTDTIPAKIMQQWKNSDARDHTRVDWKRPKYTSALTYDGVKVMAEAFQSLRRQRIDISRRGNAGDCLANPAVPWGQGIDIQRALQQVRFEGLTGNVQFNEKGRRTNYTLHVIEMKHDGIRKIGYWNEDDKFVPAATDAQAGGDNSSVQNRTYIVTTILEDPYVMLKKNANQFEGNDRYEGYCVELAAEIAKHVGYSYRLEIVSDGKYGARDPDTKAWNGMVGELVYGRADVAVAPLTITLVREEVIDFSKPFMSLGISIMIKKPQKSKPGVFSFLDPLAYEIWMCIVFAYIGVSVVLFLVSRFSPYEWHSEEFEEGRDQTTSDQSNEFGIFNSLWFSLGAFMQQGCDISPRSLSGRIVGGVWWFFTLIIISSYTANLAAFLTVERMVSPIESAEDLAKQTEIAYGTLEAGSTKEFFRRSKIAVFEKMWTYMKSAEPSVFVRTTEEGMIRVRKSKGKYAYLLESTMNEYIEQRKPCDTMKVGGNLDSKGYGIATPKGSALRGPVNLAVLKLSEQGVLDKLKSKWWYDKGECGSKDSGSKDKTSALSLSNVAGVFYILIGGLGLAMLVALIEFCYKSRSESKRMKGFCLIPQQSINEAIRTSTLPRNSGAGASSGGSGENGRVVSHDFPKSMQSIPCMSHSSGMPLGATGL
T1 sequence (Q9Y698 whole entry partner): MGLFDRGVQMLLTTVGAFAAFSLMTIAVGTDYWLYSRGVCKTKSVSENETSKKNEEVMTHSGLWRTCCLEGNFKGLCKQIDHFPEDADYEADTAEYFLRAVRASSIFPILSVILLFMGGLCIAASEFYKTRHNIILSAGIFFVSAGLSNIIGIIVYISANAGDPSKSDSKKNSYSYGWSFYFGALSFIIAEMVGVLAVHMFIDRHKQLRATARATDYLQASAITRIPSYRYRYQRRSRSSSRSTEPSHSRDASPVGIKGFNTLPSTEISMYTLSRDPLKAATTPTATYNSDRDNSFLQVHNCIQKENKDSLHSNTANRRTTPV

Take `CCn1c(C(F)(F)F)nc2c(-c3ccc(C(=O)N4CCOCC4)cc3)cccc21` [Example 2, (4-(1-ethyl-2-(trifluoromethyl)-1H-benzimidazol-4-yl)phenyl)(morpholin-4-yl)methanone]: the activation at 30 µM stood at 79.3%. Consider `CCn1c(C(F)(F)F)nc2c(-c3ccc(C(=O)N4CCOCC4)cc3)nccc21` [Example 4, (4-(1-ethyl-2-(trifluoromethyl)-1H-imidazo[4,5-c]pyridin-4-yl)phenyl)(morpholin-4-yl)methanone], for which the activation at 30 µM stood at 68.4%. `O=C(c1ccc(-c2cccc3c2nc(C(F)(F)F)n3CC(F)F)cc1)N1CCOCC1` [Example 7, (4-(1-(2,2-difluoroethyl)-2-(trifluoromethyl)-1H-benzimidazol-4-yl)phenyl)(morpholin-4-yl)methanone]: the activation at 30 µM came out at 83.3%. Regarding `CCn1c(C(F)(F)F)nc2c(-c3ccc(C(=O)N4CCOCC4)c(F)c3)nccc21` [Example 8, (4-(1-ethyl-2-(trifluoromethyl)-1H-imidazo[4,5-c]pyridin-4-yl)-2-fluorophenyl)(morpholin-4-yl)methanone], the activation at 30 µM was 109%. Take `CCn1c(C(F)(F)F)nc2c(-c3ccc(C(=O)N4CCO[C@@H](C)C4)c(F)c3)nccc21` [Example 9, (4-(1-ethyl-2-(trifluoromethyl)-1H-imidazo[4,5-c]pyridin-4-yl)-2-fluorophenyl)((2S)-2-methylmorpholin-4-yl)methanone]: the activation at 30 µM is 110%. For `C[C@H]1CN(C(=O)c2ccc(-c3cccc4c3nc(C(F)(F)F)n4C)cc2F)CCO1` [Example 11, (2-fluoro-4-(1-methyl-2-(trifluoromethyl)-1H-benzimidazol-4-yl)phenyl)((2S)-2-methylmorpholin-4-yl)methanone], the activation at 30 µM amounted to 80.3%. On to `Cn1c(C(F)(F)F)nc2c(-c3ccc(C(=O)N4CCOCC4)c(F)c3)cccc21` [Example 12, (2-fluoro-4-(1-methyl-2-(trifluoromethyl)-1H-benzimidazol-4-yl)phenyl)(morpholin-4-yl)methanone], for which the activation at 30 µM is 84.4%. The same measure, in the same setting: then `C[C@H]1CN(C(=O)c2ccc(-c3cccc4c3nc(C(F)(F)F)n4CC(F)F)cc2)CCO1` [Example 13, (4-(1-(2,2-difluoroethyl)-2-(trifluoromethyl)-1H-benzimidazol-4-yl)phenyl)((2S)-2-methylmorpholin-4-yl)methanone], with 112%. `O=C(c1ccc(-c2cccc3c2nc(C(F)(F)F)n3CC(F)F)cc1)N1CCCOCC1` [Example 14, (4-(1-(2,2-difluoroethyl)-2-(trifluoromethyl)-1H-benzimidazol-4-yl)phenyl)(1,4-oxazepan-4-yl)methanone]: the activation at 30 µM worked out at 92.6%. Consider `O=C(c1ccc(-c2nccc3c2nc(C(F)(F)F)n3CC(F)F)cc1F)N1CCCOCC1` [Example 15, (4-(1-(2,2-difluoroethyl)-2-(trifluoromethyl)-1H-imidazo[4,5-c]pyridin-4-yl)-2-fluorophenyl)(1,4-oxazepan-4-yl)methanone], for which the activation at 30 µM is 72%. Consider `O=C(c1ccc(-c2cccc3c2nc(C(F)(F)F)n3CC(F)F)cc1)N1CCOC(C(F)F)C1` (stereo not shown) [Example 16, (4-(1-(2,2-difluoroethyl)-2-(trifluoromethyl)-1H-benzimidazol-4-yl)phenyl)(2-(difluoromethyl)morpholin-4-yl)methanone], for which the activation at 30 µM is 108%. The same measure, in the same setting: then `C[C@H]1CN(C(=O)c2ccc(-c3nccc4c3nc(C(F)(F)F)n4CC(F)F)cc2F)CCO1` [Example 17, (4-(1-(2,2-difluoroethyl)-2-(trifluoromethyl)-1H-imidazo[4,5-c]pyridin-4-yl)-2-fluorophenyl)((2S)-2-methylmorpholin-4-yl)methanone], with 95.1%; and `CN(CCC#N)C(=O)c1ccc(-c2nccc3c2nc(C(F)(F)F)n3CC(F)F)cc1F` [Example 19, N-(2-cyanoethyl)-4-(1-(2,2-difluoroethyl)-2-(trifluoromethyl)-1H-imidazo[4,5-c]pyridin-4-yl)-2-fluoro-N-methylbenzamide], with 81%; and `CN(CCC#N)C(=O)c1ccc(-c2cccc3c2nc(C(F)(F)F)n3CC(F)F)cc1` [Example 21, N-(2-cyanoethyl)-4-(1-(2,2-difluoroethyl)-2-(trifluoromethyl)-1H-benzimidazol-4-yl)-N-methylbenzamide], with 93.7%. On to `O=C(c1ccc(-c2cccc3c2nc(C(F)(F)F)n3CC(F)F)cc1)N1CCOC(C(F)F)C1` (stereo not shown) [Example 22, (4-(1-(2,2-difluoroethyl)-2-(trifluoromethyl)-1H-benzimidazol-4-yl)phenyl)(2-(difluoromethyl)morpholin-4-yl)methanone], for which the “hGluR1 flip/30 μM (%)” value is 105.5%. As for `O=C(c1ccc(-c2cccc3c2nc(C(F)(F)F)n3CC(F)F)cc1)N1CCOC(C(F)F)C1` (stereo not shown) [Example 23, (4-(1-(2,2-difluoroethyl)-2-(trifluoromethyl)-1H-benzimidazol-4-yl)phenyl)(2-(difluoromethyl)morpholin-4-yl)methanone], the “hGluR1 flip/30 μM (%)” value amounted to 103%. Turning to `O=C(c1ccc(-c2nccc3c2nc(C(F)(F)F)n3CC(F)F)cc1F)N1CCC1` [Example 24, azetidin-1-yl(4-(1-(2,2-difluoroethyl)-2-(trifluoromethyl)-1H-imidazo[4,5-c]pyridin-4-yl)-2-fluorophenyl)methanone], the activation at 30 µM is 78.1%. As for `O=C(c1ccc(-c2nccc3c2nc(C(F)(F)F)n3CC(F)F)cc1F)N1CC(F)(F)C1` [Example 26, (3,3-difluoroazetidin-1-yl)(4-(1-(2,2-difluoroethyl)-2-(trifluoromethyl)-1H-imidazo[4,5-c]pyridin-4-yl)-2-fluorophenyl)methanone], the activation at 30 µM was found to be 79.3%.

For the compound `CN(C(=O)c1ccc(-c2nccc3c2nc(C(F)(F)F)n3CC(F)F)cc1F)C1CCOCC1` [Example 28, 4-(1-(2,2-difluoroethyl)-2-(trifluoromethyl)-1H-imidazo[4,5-c]pyridin-4-yl)-2-fluoro-N-methyl-N-(tetrahydro-2H-pyran-4-yl)benzamide], the activation at 30 µM was found to be 97.8%. As to `O=C(c1ccc(-c2cccc3c2nc(C(F)(F)F)n3CC(F)F)cc1)N1CCOCC(F)(F)C1` [Example 29, (4-(1-(2,2-difluoroethyl)-2-(trifluoromethyl)-1H-benzimidazol-4-yl)phenyl)(6,6-difluoro-1,4-oxazepan-4-yl)methanone], the activation at 30 µM amounted to 93%.

On to `CN(CCC#N)C(=O)c1ccc(-c2nccc3c2nc(C(F)(F)F)n3CC(F)F)cc1F` [Example 30, N-(2-cyanoethyl)-4-(1-(2,2-difluoroethyl)-2-(trifluoromethyl)-1H-imidazo[4,5-c]pyridin-4-yl)-2-fluoro-N-methylbenzamide], for which the “hGluR1 flip/30 μM (%)” value turned out to be 92.6%. On to `O=C(c1ccc(-c2nccc3c2nc(C(F)(F)F)n3CC(F)F)cc1F)N1CCOCC(F)(F)C1` [Example 34, (4-(1-(2,2-difluoroethyl)-2-(trifluoromethyl)-1H-imidazo[4,5-c]pyridin-4-yl)-2-fluorophenyl)(6,6-difluoro-1,4-oxazepan-4-yl)methanone], for which the activation at 30 µM turned out to be 94.2%.
